Laboratory results reported in patent US10207984B2, “Cyclopropyl derivatives and methods of use” (Emory University, priority 2011, dated 2019).
Counter-ions that a name gives are not always drawn. Like-named read-outs stand apart in the source and are kept apart here.

Legend:
[1] = target: T1, norepinephrine transporters (NET) (Rattus norvegicus, UniProt Q9WTR4); test: NET binding, displacement of [3H]nisoxetine in rat brain membranes
T1 construct: Whole rat brains (minus cerebellum) are homogenized; from tissue; host or cells: rat whole brain minus cerebellum, membranes
T1 sequence (Q9WTR4 1-597): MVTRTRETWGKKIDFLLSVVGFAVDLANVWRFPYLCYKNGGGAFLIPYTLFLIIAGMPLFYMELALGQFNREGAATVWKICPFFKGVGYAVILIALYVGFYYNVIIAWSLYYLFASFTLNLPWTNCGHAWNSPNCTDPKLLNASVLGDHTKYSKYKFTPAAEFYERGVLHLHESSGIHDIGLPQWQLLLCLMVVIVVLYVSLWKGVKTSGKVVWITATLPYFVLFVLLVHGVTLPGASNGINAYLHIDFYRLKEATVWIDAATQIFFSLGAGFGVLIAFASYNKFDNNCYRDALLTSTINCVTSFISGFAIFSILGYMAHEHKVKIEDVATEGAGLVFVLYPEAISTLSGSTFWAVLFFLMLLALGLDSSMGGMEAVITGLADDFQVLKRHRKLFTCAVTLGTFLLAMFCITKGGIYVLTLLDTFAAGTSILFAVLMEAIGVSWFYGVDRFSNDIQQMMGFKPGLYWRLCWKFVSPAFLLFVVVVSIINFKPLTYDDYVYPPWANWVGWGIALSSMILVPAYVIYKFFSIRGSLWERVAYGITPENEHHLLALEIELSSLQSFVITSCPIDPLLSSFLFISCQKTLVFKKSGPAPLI
Protocol: (§1) Binding of analogs at norepinephrine transporters (NET) was determined by displacement of [^3H]nisoxetine binding. […] The membranes are resuspended in nisoxetine assay buffer (300 mM NaCl, 5 mM KCl, 50 mM Tris-HCl, pH 7.4) and centrifuged again before final resuspension in volumes of buffer. Assay tubes contain 750 μl of brain membranes, [^3H]nisoxetine (0.7 nM) together with unlabeled drugs dissolved in nisoxetine assay buffer to a final volume of 1 ml. Tubes are incubated for 40 min at 25° C., and the reaction is terminated by rapid filtration with 3×4 mL of cold Tris buffer through Whatman GF/B glass fiber filters which have been pre-soaked in Tris buffer containing 0.1% BSA for at least 1 h. Non-specific binding is determined in the presence of 1 μM desipramine. In [^3H]citalopram and [^3H]nisoxetine binding assays, radioactivity is determined by liquid scintillation spectrophotometry (efficiency: 50%) after eluting filters overnight in 5 mL of Ecolite scintillation fluid (ICN). IC50 values are calculated from displacement curves using 7-10 concentrations of unlabeled analogs. […] For [^3H]paroxetine and [^3H]nisoxetine binding assays, Ki values are calculated using the Cheng-Prusoff equation.

[2] = target: T2, 5-HT transport (SERT) sites (Rattus norvegicus, UniProt P31652); test: SERT binding, displacement of [3H]citalopram in rat frontal cortex membranes
T2 construct: Tissue is obtained from frozen rat brains as described above; from tissue; host or cells: rat frontal cortex membranes (frozen rat brains)
T2 sequence (P31652 whole entry): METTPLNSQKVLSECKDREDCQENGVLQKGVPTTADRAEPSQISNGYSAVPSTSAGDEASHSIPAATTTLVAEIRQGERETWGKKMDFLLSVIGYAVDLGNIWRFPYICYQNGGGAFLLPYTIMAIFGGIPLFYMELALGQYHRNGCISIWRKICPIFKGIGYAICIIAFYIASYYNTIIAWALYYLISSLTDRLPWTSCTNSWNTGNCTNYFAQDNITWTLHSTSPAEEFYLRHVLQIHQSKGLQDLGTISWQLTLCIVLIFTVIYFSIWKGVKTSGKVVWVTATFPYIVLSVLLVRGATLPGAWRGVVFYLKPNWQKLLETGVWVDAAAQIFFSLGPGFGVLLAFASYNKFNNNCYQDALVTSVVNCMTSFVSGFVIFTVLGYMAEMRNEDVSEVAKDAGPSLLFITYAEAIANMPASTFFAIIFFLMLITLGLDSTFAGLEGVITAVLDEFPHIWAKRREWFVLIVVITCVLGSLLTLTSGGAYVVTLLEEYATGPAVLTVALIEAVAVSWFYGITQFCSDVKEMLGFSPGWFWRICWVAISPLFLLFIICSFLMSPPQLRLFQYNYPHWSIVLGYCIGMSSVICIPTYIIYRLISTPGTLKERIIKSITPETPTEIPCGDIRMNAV
Protocol: Affinities of analogs at 5-HT transport (SERT) sites are determined by displacement of [^3H] citalopram binding in membranes from rat frontal cortex. […] Assay tubes contain 50 mg (original wet weight) of membranes, 0.4 nM [^3H]citalopram, and various concentrations of unlabeled drugs dissolved in citalopram assay buffer in a final volume of 2 ml. Tubes are incubated for 60 min at 25° C., and the reaction is terminated by rapid filtration with 3×4 mL of cold Tris buffer through Whatman GF/B glass fiber filters pre-soaked in Tris buffer containing 0.1% BSA for at least 1 h. Non-specific binding is determined in the presence of 10 μM fluoxetine.
as §1

[3] = target: T3, dopamine transport (DAT) sites (Rattus norvegicus, UniProt P23977); test: DAT binding, displacement of [125I]RTI-55 in rat striatum membranes
T3 construct: from tissue; host or cells: Sprague-Dawley rat striatum membranes
T3 sequence (P23977 whole entry): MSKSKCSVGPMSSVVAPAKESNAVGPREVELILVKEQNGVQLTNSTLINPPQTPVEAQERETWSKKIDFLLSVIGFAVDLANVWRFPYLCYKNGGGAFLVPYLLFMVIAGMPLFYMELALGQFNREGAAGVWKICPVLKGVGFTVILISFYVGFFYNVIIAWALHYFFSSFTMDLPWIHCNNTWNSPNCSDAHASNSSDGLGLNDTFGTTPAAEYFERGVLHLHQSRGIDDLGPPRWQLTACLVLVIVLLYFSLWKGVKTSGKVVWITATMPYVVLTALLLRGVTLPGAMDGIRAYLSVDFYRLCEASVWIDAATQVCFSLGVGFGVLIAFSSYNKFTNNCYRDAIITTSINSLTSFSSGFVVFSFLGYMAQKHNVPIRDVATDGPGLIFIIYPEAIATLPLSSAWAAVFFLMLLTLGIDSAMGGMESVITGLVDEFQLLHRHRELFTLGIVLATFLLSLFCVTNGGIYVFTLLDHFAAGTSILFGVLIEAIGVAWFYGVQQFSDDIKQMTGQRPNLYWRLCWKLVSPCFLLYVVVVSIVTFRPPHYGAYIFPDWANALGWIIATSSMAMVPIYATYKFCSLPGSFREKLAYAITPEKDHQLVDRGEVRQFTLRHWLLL
Protocol: Frozen brains from Sprague-Dawley rats are obtained commercially and striata are dissected on ice. […] Tubes are incubated for 50 min at 25° C., and the reaction is terminated by rapid filtration with 3-5 ml of cold Tris buffer through Whatman GF/B glass fiber filters pre-soaked in Tris buffer containing 0.1% BSA for at least 1 h. Non-specific binding is determined in the presence of 1 μMWF-23. […]

[4] = Log-P (Table 1); format: physicochemical
[5] = system: SNL rats; test: Mechanical allodynia (paw withdrawal threshold) in L5/L6 spinal nerve ligation (SNL) model of neuropathic pain; format: in vivo, rat; details: for anti-allodynic effect (in words): i.t., clonidine 10 μg, HD-283 30 μg, HD-286 and HD-288 up to 3 μg
Source text: A 3 cm incision was made in the back using the iliac crests as a midpoint. An incision was then made in the underlying muscle, which was then separated by both sharp and blunt dissection to expose the left transverse process of the fifth lumbar vertebra. The transverse process was removed using bone microrongeurs, and the fifth lumbar nerve was exteriorized from underneath the spinal column using a small metal hook and ligated using 4.0 silk suture with sufficient pressure to cause the nerve to bulge on each side of the ligature. The sixth lumbar nerve was exteriorized from underneath the iliac bone at the sciatic notch and ligated in a similar manner. All muscle layers were sutured using 4.0 chromic gut, the skin was sutured using 4.0 nylon suture.
The animal is placed in a stereotaxic frame to immobilize the head under pentobarbital anesthesia. The animal's body is lifted and supported to render the spinal column straight and level and the animal's head is placed downward such the top of the skull forms a 90° angle with the spinal column. A small incision is placed at the back of the neck and the underlying muscles are blunt dissected to reveal the atlanto-occipital membrane. A small incision is placed in the atlanto-occipital membrane through which a 32 ga polyethylene catheter is inserted that is 8 cm in length. The catheter is anchored to the neck muscles with 4.0 silk suture and the exterior wounds are closed with 4.0 nylon suture.
All compounds were dissolved in 0.9% (wt/vol) saline, pH 7.4 and administered through the intrathecal catheter in a volume of 5 μl, followed by 15 μl of 0.9% saline to flush the catheter.
Paw withdrawal threshold was determined before and at selected time points following intrathecal drug administration using calibrated von Frey filaments. The animals are placed in elevated Plexiglas chambers with wire mesh floors and acclimated for a minimum of 30 minutes. Beginning with a filament calibrated to bend with a force of 2 g of pressure, the filament is applied to the plantar surface of the left hindpaw with sufficient force to bend slightly and left in place for 8 seconds or until the animal withdraws it's paw from the filament. In the absence of a paw withdrawal, the next highest calibrated filament is applied in a similar manner. In the presence of a paw withdrawal, the next lowest calibrated filament is applied. This up-down method continues until 4 responses are recorded after an initial positive response. The paw withdrawal threshold is calculated using Dixon non-parametric statistics.
The potency and efficacy of novel SNRT analogs in reversing mechanical hypersensitivity were determined in the L5/L6 spinal nerve ligation (SNL) model of neuropathic pain in rats. Compounds were administered intrathecal (i.t.) and the effect on paw withdrawal threshold was assessed at various time points following treatment.

[6] = [3H]nisoxetine displacement, rat brain membranes, Ki by Cheng-Prusoff, read-out: NET
[7] = [3H]citalopram displacement, rat frontal cortex membranes, Ki by Cheng-Prusoff, read-out: SERT
[8] = [125I]RTI-55 displacement, rat striatum membranes, reported as IC50, read-out: DAT

| SMILES | Ki [1, 6] [nM] | Ki [2, 7] [nM] | IC50 [3, 8] [nM] | Log-P [4] | other results |
| --- | --- | --- | --- | --- | --- |
| CNCC1CC1(C(=O)OC)c1ccccc1 (racemic) [HD-284, Methyl 2-((methylamino)methyl)-1-phenylcyclopropanecarboxylate] | 152 ± 65 | 157 ± 4.8 | 1780 ± 87 | 1.65 |  |
| CNCC1CC1(C(=O)OC)c1ccc(-c2ccccc2)cc1 (racemic) [HD-286, Methyl 1-([1,1′-biphenyl]-4-yl)-2-((methylamino)methyl)cyclopropanecarboxylate hydrochloride] | 315 ± 100 | 4.85 ± 1 |  | 3.54 | anti-allodynic effect (in words) [5]: significantly lower efficacy |
| CNCC1CC1(C(=O)OC)c1ccc2ccccc2c1 (racemic) [HD-287, Methyl 2-((methylamino)methyl)-1-(naphthalen-2-yl)cyclopropanecarboxylate hydrochloride] | 3.49 ± 0.64 |  |  | 2.82 | Ki [2]: 6.58 ± 0.71 nM; IC50 [3]: 177 ± 44 nM |
| CNCC1CC1(C(=O)OC)c1ccccc1Cl (racemic) [HD-290, Methyl 1-(2-chlorophenyl)-2-((methylamino)methyl)cyclopropanecarboxylate] | 289 ± 24 | 329 ± 54 | 1840 ± 350 | 2.36 |  |
| Clc1cccc(Cl)c1N=C1NCCN1 [Clonidine, clonidine, reference compound] |  |  |  |  | anti-allodynic effect (in words) [5]: reversed mechanical allodynia |
| CCN(CC)C(=O)C1(c2ccccc2)CC1CN (centres unmarked) [HD-283, Milnacipran, reference compound] |  |  |  | 1.91 | Ki [1]: 23.8 ± 1.7 nM; transporter selectivity (in words) ([1]; NET versus SERT binding): non-selective; Ki [2]: 35.1 ± 4.4 nM; IC50 [3]: 1970 ± 230 nM; anti-allodynic effect (in words) [5]: reversed mechanical allodynia |
| CNC[C@H]1C[C@@]1(C(=O)OC)c1ccc2ccccc2c1 [HD-330, (1S,2S)-methyl 2-((methylamino)methyl)-1-(naphthalen-2-yl)cyclopropanecarboxylate] | 16.4 ± 0.52 |  | 313 ± 55 | 2.82 | Ki [2]: 27 ± 3.4 nM |
| CNC[C@@H]1C[C@]1(C(=O)OC)c1ccc2ccccc2c1 [HD-331, (1R,2R)-methyl 2-((methylamino)methyl)-1-(naphthalen-2-yl)cyclopropanecarboxylate] | 10.4 ± 0.89 |  | 320 ± 51 | 2.82 | Ki [2]: 15 ± 2.8 nM |
| CNC[C@H]1C[C@@]1(C(=O)OC)c1ccc(-c2ccccc2)cc1 [HD-332, (1S,2S)-methyl 1-([1,1′-biphenyl]-4-yl)-2-((methylamino)methyl)cyclopropanecarboxylate] | > 10000 | 79.8 ± 21 |  | 3.54 |  |

Continued by falling Ki [1, 6], values first:

| Ki [1, 6] [nM] | Ki [2, 7] [nM] | IC50 [3, 8] [nM] | Log-P [4] | SMILES | other results |
| --- | --- | --- | --- | --- | --- |
| 86.6 ± 19 | 2.69 ± 0.62 |  | 3.54 | CNC[C@@H]1C[C@]1(C(=O)OC)c1ccc(-c2ccccc2)cc1 [HD-333, (1R,2R)-methyl 1-([1,1′-biphenyl]-4-yl)-2-((methylamino)methyl)cyclopropanecarboxylate] |  |
| 44.9 ± 1 | 946 ± 71 | > 10000 | 2.51 | CNC[C@H]1C[C@@]1(C(=O)OC)c1ccc(Br)cc1 [HD-324, (1S,2S)-methyl 1-(4-bromophenyl)-2-((methylamino)methyl)cyclopropanecarboxylate] |  |
| 8.62 ± 0.71 | 106 ± 21 | 1360 ± 198 | 1.31 | CNCC1CC1(C(=O)OC)c1ccc(OC)c(OC)c1 (racemic) [HD-289, Methyl 1-(3,4-dimethoxyphenyl)-2-((methylamino)methyl)cyclopropanecarboxylate hydrochloride] |  |
| 8.11 ± 0.8 | 40.5 ± 4.3 |  | 2.95 | CNC[C@H]1C[C@@]1(C(=O)OC)c1ccc(Cl)c(Cl)c1 [HD-326, (1S,2S)-methyl 1-(3,4-dichlorophenyl)-2-((methylamino)methyl)cyclopropanecarboxylate] |  |
| 4.57 ± 0.66 | 18.4 ± 2.5 | 87.9 ± 9.5 | 3.17 | CNC[C@H]1C[C@@]1(C(=O)OC)c1ccc(Br)c(Br)c1 [HD-328, (1S,2S)-methyl 1-(3,4-dibromophenyl)-2-((methylamino)methyl)cyclopropanecarboxylate] |  |
| 3.7 ± 1.4 | 210 ± 10 | 1460 ± 470 | 2.51 | CNCC1CC1(C(=O)OC)c1ccc(Br)cc1 (racemic) [HD-285, Methyl 1-(4-bromophenyl)-2-((methylamino)methyl)cyclopropanecarboxylate] |  |
| 2.49 ± 0.07 | 47 ± 2.9 | 333 ± 79 | 2.51 | CNC[C@@H]1C[C@]1(C(=O)OC)c1ccc(Br)cc1 [HD-325, (1R,2R)-methyl 1-(4-bromophenyl)-2-((methylamino)methyl)cyclopropanecarboxylate] |  |
| 0.8 ± 0.02 | 5.6 ± 0.39 |  | 2.95 | CNCC1CC1(C(=O)OC)c1ccc(Cl)c(Cl)c1 (racemic) [HD-288, Methyl 1-(3,4-dichlorophenyl)-2-((methylamino)methyl)cyclopropanecarboxylate] | PWT after treatment ([5]; 3 μg i.t.): 24.9 ± 2.5 g; PWT before treatment (baseline) ([5]; before i.t. drug): 2.9 ± 0.4 g; anti-allodynic A50 ([5]; i.t. administration): 0.6 ± 0.3 µg; anti-allodynic effect (in words) [5]: significantly greater than clonidine |
| 0.62 ± 0.12 | 1.71 ± 0.05 | 35.2 ± 4.6 | 3.17 | CNC[C@@H]1C[C@]1(C(=O)OC)c1ccc(Br)c(Br)c1 [HD-329, (1R,2R)-methyl 1-(3,4-dibromophenyl)-2-((methylamino)methyl)cyclopropanecarboxylate] |  |
| 0.31 ± 0.01 | 2.42 ± 0.31 |  | 2.95 | CNC[C@@H]1C[C@]1(C(=O)OC)c1ccc(Cl)c(Cl)c1 [HD-327, (1R,2R)-methyl 1-(3,4-dichlorophenyl)-2-((methylamino)methyl)cyclopropanecarboxylate] |  |
